Experimental data published in PMC10283052, “Intranasal delivery of mitochondrial protein humanin rescues cell death and promotes mitochondrial function in Parkinson's disease” (Theranostics, 2023).

Tests used:
[1] = system: differentiated PC12 cells exposed to MPP^+; assay: Intracellular humanin in MPP+-exposed differentiated PC12 cells, western blot; assay type: cell-based, rat; details: HN treatment, MPP+ exposure
Method: For neuronal differentiation of PC12 cells, the cells were grown in DMEM containing 1.5% horse serum, 1.5% FBS, 1% P/S, and 100 ng/mL nerve growth factor (NGF, Thermo Fisher Scientific) every 2 days. PC12 cells were differentiated for 7 days and used for subsequent experiments.
Mouse brain tissue samples and cells were homogenized in radioimmunoprecipitation assay (RIPA) buffer (Cell Signaling, Danvers, MA, USA) in the presence of a protease and phosphatase inhibitor cocktail (Thermo Fisher Scientific). The samples were sonicated on ice, and the supernatant was collected after centrifugation at 4°C at 10,000 g for 5 min. The protein samples were loaded and separated using Tris-glycine SDS-PAGE. To detect the HN peptide, the proteins were separated into three layers of tricine SDS-PAGE, as previously described. The separated proteins were transferred to nitrocellulose membranes (GenDEPOT, Barker, TX, USA). The membranes were blocked for 0.5 h, followed by incubation with appropriate primary antibodies overnight at 4°C. The primary antibodies used were as follows: anti-tyrosine hydroxylase (Cat # P40101, Pel-Freez Biologicals), anti-HN (Cat # RA19000, Neuromics), anti-β-actin (Cat # GTX109639, GeneTex, Irvine, CA, USA), and anti-GAPDH (Cat # AM4300, Thermo Fisher Scientific). […] The results were analyzed using the ImageJ densitometry system. […]

SH-SY5Y cells [2] = assay: Real-time qPCR of genes of mitochondrial function; assay type: cell-based, human; details: HN 20 μM, 24 h
Method: For real-time qPCR, total RNA was extracted using TRIzol reagent (Thermo Fisher Scientific). cDNA was synthesized using a cDNA synthesis kit (Bioneer Corporation), according to the manufacturer's protocol. The mRNA levels were analyzed in a LightCycler 96 (Roche, Basel, Switzerland) using SYBR Green I master mix and SensiFAST™ SYBR® No-ROX Kit (Bioline, Paris, France). B2M (beta-2-microglobulin) gene expression was used to normalize gene expression data. The primer sequences used in this experiment are in Table S2.

SH-SY5Y cells [3] = assay: Mitochondrial mass and network morphology, MitoTracker Green; assay type: cell-based, human; details: HN 20 μM, 24 h
Method: For staining, the cells were seeded on PDL-coated glass slides and treated as indicated above. The samples were fixed using methanol and permeabilized using 0.1% Triton X-100 in PBS. After blocking with 5% bovine serum albumin (BSA), the cells were incubated with the appropriate primary antibody [anti-HN (1:500, Cat no # RA19000, Neuromics, Edina, MN, USA), anti-TH (1:500, Cat no # P40101, Pel-Freez Biologicals, Rogers, AR, USA), anti-lectin (1:200, Cat no # L32482, Thermo Fisher Scientific), anti-α-SMA (1:500, Cat no # ab5694, Abcam, Cambridge, MA, USA), and anti-GFAP (1:200, Cat no # sc-33673, Santa Cruz, Santa Cruz, USA)]. After incubation, the samples were washed and incubated with Alexa Fluor 594- or 488-conjugated antibodies (Thermo Fisher Scientific). The nuclei were stained using Hoechst 33342 (Sigma-Aldrich) and mounted using an anti-fade solution (Thermo Fisher Scientific). Fluorescent images were captured at the Neuroscience Translational Research Solution Center (Busan, South Korea) using an LSM 700 confocal microscope (Zeiss, Jena, Germany). The mitochondrial network morphology was assessed using the FIJI/ImageJ software as described previously.

rat organotypic slices = assay: Ex vivo PD model, organotypic brain slices with 6-OHDA; assay type: cell-based; details: then 6-OHDA 100 μM, 2 h
Method: Postnatal 5-7-day-old rat pups were used to prepare organotypic slices, as previously described, with minor modifications. The brain of anesthetized pups was aseptically removed. The brain hemispheres were separated and cut sagittally into 350-μm slices using a MacIlwain tissue chopper (MacIlwain, Mickle Laboratory, Cambridge, UK). The slices were transferred to ice-cold Gray's Balanced Salt solution containing CaCl2 (1.5 mM), NaCl (136 mM), KCl (5 mM), KH2PO4 (0.2 mM), MgCl2 (1 mM), MgSO4 (0.2 mM), NaHCO3 (0.2 mM), Na2PO4 (0.08 mM), and glucose (5.5 mM). […]
Mouse brain tissue samples and cells were homogenized in radioimmunoprecipitation assay (RIPA) buffer (Cell Signaling, Danvers, MA, USA) in the presence of a protease and phosphatase inhibitor cocktail (Thermo Fisher Scientific). […] The results were analyzed using the ImageJ densitometry system. […]
The organotypic slice cultures were exposed to 6-OHDA at the tissue surface on DIV 8 to avoid apoptosis due to nutrients and to induce proper maturation. […] Intracellular ATP was quantified using the CellTiter-Glo Luminescent Viability Kit (Promega Corporation, Madison, WI, USA), according to the manufacturer's protocol. Luminescence was measured using a SpectraMax L Microplate Reader (Molecular Devices).

humanin (MAPRGFSCLLLLTSEIDLPVKRRA; Humanin; UniProt Q8IVG9 1-24, looked up) [HN, mitochondria-derived peptide encoded by the mitochondrial genome, synthesized by Fmoc-based SPPS at GL Biochem]
intracellular humanin [1]: upregulated intracellular humanin
transcript levels of mitochondrial biogenesis (PGC-1α, NRF1, ESRRA) and oxidative phosphorylation (SDHA, ATP5F1A, ATP5F1D) genes (SH-SY5Y cells [2]): significant increase
expression of fatty acid metabolism and TCA cycle genes (SH-SY5Y cells [2]; ACC2, ACLY, FASN, IDH3A): a significant alteration was not observed
mitochondrial branch length (SH-SY5Y cells [3]; versus DMSO): longer rods and branches of mitochondria
mitochondrial volume (SH-SY5Y cells [3]; versus DMSO): increase in mitochondrial volume
number of branches per mitochondrial network (SH-SY5Y cells [3]; versus DMSO): increase
mitochondrial mass (SH-SY5Y cells [3]; MitoTracker Green): increased mitochondrial mass
mitochondrial biogenesis markers PGC-1α and NRF1, western blot (rat organotypic slices; HN pre-treatment 1 μM, 24 h): stimulated mitochondrial biogenesis
ATP levels (CellTiter-Glo luminescence) (rat organotypic slices; HN pre-treatment 24 h, 0.1 or 1 μM): effectively inhibited significant depletion of ATP levels
